Assay results reported in the supplement of paper PMC10307832.

Legend:
Test in all cases: relative viability (nuclei count vs DMSO), 5 days (fraction); higher = more cells survive
CX-5461 + Linsitinib = compound: Cc1cnc(CNC(=O)c2c(=O)c3ccc(N4CCCN(C)CC4)nc3n3c2sc2ccccc23)cn1 [CX-5461] + C[C@]1(O)C[C@@H](c2nc(-c3ccc4ccc(-c5ccccc5)nc4c3)c3c(N)nccn32)C1 [Linsitinib] (partner 1 µM)
How it was run: (§1)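 Values are medians from duplicate plates. Each reflects relative viability, defined as the nuclei count of treated wells over that of vehicle wells. Lung cancer cell lines in 1536-well plates were pin-tool dosed one day after seeding with one drug alone or with a fixed anchor-drug dose plus five library-drug doses (not always all listed) in √10 steps, then fixed, stained and imaged at 4× after 5 days.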

IMD-0354 + Dasatinib = compound: O=C(Nc1cc(C(F)(F)F)cc(C(F)(F)F)c1)c1cc(Cl)ccc1O [IMD-0354] + Cc1nc(Nc2ncc(C(=O)Nc3c(C)cccc3Cl)s2)cc(N2CCN(CCO)CC2)n1 [Dasatinib] (partner 0.075 µM)
How it was run: as §1

CX-5461 + Bortezomib = compound: Cc1cnc(CNC(=O)c2c(=O)c3ccc(N4CCCN(C)CC4)nc3n3c2sc2ccccc23)cn1 [CX-5461] + CC(C)C[C@H](NC(=O)[C@H](Cc1ccccc1)NC(=O)c1cnccn1)B(O)O [Bortezomib] (partner 0.002 µM)
How it was run: as §1

IMD-0354 + Palbociclib = compound: O=C(Nc1cc(C(F)(F)F)cc(C(F)(F)F)c1)c1cc(Cl)ccc1O [IMD-0354] + CC(=O)c1c(C)c2cnc(Nc3ccc(N4CCNCC4)cn3)nc2n(C2CCCC2)c1=O [Palbociclib] (partner 0.5 µM)
How it was run: as §1

Cell Line	relative viability (CX-5461 + Linsitinib; first compound 0.01 µM)	relative viability (CX-5461 + Linsitinib; first compound 0.03162 µM)	relative viability (CX-5461 + Linsitinib; first compound 0.1 µM)	relative viability (CX-5461 + Linsitinib; first compound 0.3162 µM)	relative viability (CX-5461 + Linsitinib; first compound 1 µM)	relative viability (IMD-0354 + Dasatinib; first compound 0.04 µM)	relative viability (IMD-0354 + Dasatinib; first compound 0.1265 µM)	relative viability (IMD-0354 + Dasatinib; first compound 0.4 µM)	relative viability (IMD-0354 + Dasatinib; first compound 1.265 µM)	relative viability (IMD-0354 + Dasatinib; first compound 4 µM)	relative viability (CX-5461 + Bortezomib; first compound 0.01 µM)	relative viability (CX-5461 + Bortezomib; first compound 0.03162 µM)	relative viability (CX-5461 + Bortezomib; first compound 0.1 µM)	relative viability (CX-5461 + Bortezomib; first compound 0.3162 µM)	relative viability (CX-5461 + Bortezomib; first compound 1 µM)	relative viability (IMD-0354 + Palbociclib; first compound 0.04 µM)	relative viability (IMD-0354 + Palbociclib; first compound 0.1265 µM)	relative viability (IMD-0354 + Palbociclib; first compound 0.4 µM)	relative viability (IMD-0354 + Palbociclib; first compound 1.265 µM)	relative viability (IMD-0354 + Palbociclib; first compound 4 µM)
LCLC-103H	1.14	1.16	0.895	1.21	1.12	0.42	0.487	0.311	0.232	0.201	1.1	1.13	1.11	1.02	1.07	0.469	0.468	0.459	0.386	0.331
LOU-NH91	1	1.04	0.999	0.715	0.842	0.616	0.555	0.258	0.102	0.205	0.509	0.492	0.485	–	0.452	0.538	0.464	0.242	0.188	0.243
LU99A	0.562	0.575	0.494	0.345	0.53	0.573	0.648	0.445	0.113	0.19	1.1	1.02	0.977	0.868	0.417	0.295	0.418	0.325	0.279	0.179
LXF-289	0.963	1	1.04	0.903	0.949	0.249	0.244	0.207	0.0737	0.068	0.99	1.06	0.976	1.03	0.66	0.565	0.61	0.454	0.435	0.0922
NCI-H23	0.612	0.554	0.709	0.529	0.451	0.836	0.82	0.384	0.275	0.227	0.939	0.964	0.854	1.06	0.404	0.482	0.418	0.349	0.153	0.189
NCI-H322M	0.844	0.911	0.944	–	0.9	0.25	0.277	0.248	0.222	0.274	1.2	1.35	1.26	–	1.23	0.507	0.5	0.5	0.39	0.41
NCI-H441	0.567	0.651	0.487	0.288	0.629	0.611	0.583	0.499	0.191	0.229	0.577	0.555	0.692	0.465	0.337	0.214	0.196	0.366	0.12	0.146
NCI-H460	1.02	0.713	0.133	0.537	0.0178	0.518	0.529	0.253	0.0582	0.0193	1.15	0.995	0.16	0.233	0.0251	0.147	0.138	0.206	0.024	0.04
NCI-H520	0.877	0.916	0.934	0.889	0.701	0.21	0.185	0.186	0.132	0.163	0.612	0.527	0.627	0.257	0.315	0.199	0.22	0.215	0.136	0.121
NCI-H647	1.15	1.25	1.1	1.25	0.442	0.263	0.0872	0.132	0.0483	0.0895	1.16	0.991	0.95	0.935	0.168	0.481	0.485	0.174	0.056	0.0731
NCI-H650	0.955	0.999	0.697	0.571	0.373	0.514	0.484	0.404	0.264	0.197	0.887	0.832	0.739	0.594	0.483	0.301	0.283	0.322	0.232	0.189
NCI-H661	0.593	0.721	0.87	–	0.433	0.903	1.04	0.533	0.197	0.234	0.885	0.877	0.61	–	0.639	0.397	0.385	0.369	0.276	0.253
NCI-H727	0.351	0.276	0.321	0.342	0.129	0.325	0.4	0.326	0.256	0.314	1.03	0.812	0.596	0.718	0.662	0.502	0.582	0.667	0.709	0.455
NCI-H838	1.1	1.05	1.08	0.847	0.859	0.239	0.321	0.256	0.239	0.214	0.902	0.85	0.979	0.29	0.646	0.223	0.23	0.178	0.186	0.151
NCI-H1355	0.859	0.845	0.893	0.838	0.787	0.761	0.718	0.574	0.198	0.294	1.2	1.19	1.12	1.28	0.877	0.385	0.41	0.378	0.195	0.253
NCI-H1437	1.17	1.11	–	0.991	0.763	0.528	0.381	0.255	0.0882	0.144	0.45	0.423	–	0.369	0.316	0.338	0.29	0.166	0.141	0.162
